Test results: patent US20230241071A1, “COMBINATION TREATMENT OF LIVER DISORDERS” (Terns Pharmaceuticals, Inc., priority 2021, published 2023)
Like-named read-outs stand apart in the source and are kept apart here.

Key:
[1] = system: SD rats fed a high cholesterol diet; assay: Rat hypercholesterolemic model; type: in vivo; details: single IP dose 0.3 to 30 mpk, 24 h after injection
Description: SD rats were fed a high cholesterol diet for 2 weeks, increasing the serum cholesterol levels ˜4-fold over that time. Single doses of Compound 2 from 0.3 to 30 mpk or a single 30 mpk dose of MGL-3196 were injected IP and serum was analyzed for total serum cholesterol and triglycerides 24 h after the injection.

[2] = Multiple ascending doses of Compound 2 in healthy subjects with elevated LDL-c; type: in vivo, human; details: 1, 3, 6, 10 mg QD 14 days
Description: Healthy volunteers with mildly elevated LDL-c were randomized 3:1 to Compound 2 (n=6) or placebo (n=2). Volunteers randomized to Compound 2 received multiple doses of 1, 3, 6 or 10 mg of Compound 2 once daily for 14 days in the MAD cohort of the study.

[3] = Multiple-ascending dose trial of Compound 2 in healthy participants; type: in vivo, human; details: for Cmax / AUC / half-life: human, plasma, oral; for AUC: read-out: AUCtau (mean); for half-life: read-out: t1/2 (median) (converted)
Description: A multiple-ascending dose clinical trial of Compound 2 was performed.
Compound 2 plasma and urine concentrations were determined using validated liquid chromatography-tandem mass spectrometry assay.
Plasma samples for Compound 2 concentration and PK sampling were collected pre-dose and at 0.5, 1, 2, 3, 4, 6, 8, 12, and 24 hours after the first dose, at pre-dose on Days 3, 4, 5, 8, 11, and 13 of dosing, and at pre-dose and at 0.5, 1, 2, 3, 4, 6, 8, 12, 24, 48, and 72 hours after 14 days of administration of study medication (placebo or compound). (See Table 16, FIG. 17) PK parameters were estimated via noncompartmental methods using Phoenix® WinNonlin® (Certara, LP, Princeton, N.J.). Concentrations of serum pharmacodynamic (PD) biomarkers apolipoprotein B (Apo B) and sex hormone binding globulin (SHBG) were measured using an immunoassay and serum lipids were determined using spectrophotometry.
PD sampling was also performed. Percent change from baseline for PD markers were calculated using an ANCOVA model with percent change from baseline as dependent variable, treatment group as fixed effect, and baseline as covariate. Analyses used observed data only without imputation for missing data.

OATP1B3 = biological target: T1, OATP1B3 (Homo sapiens, UniProt Q9NPD5); assay: In vitro transporter inhibition, OATP1B3; type: in vitro ADME
T1 sequence (Q9NPD5 1-702): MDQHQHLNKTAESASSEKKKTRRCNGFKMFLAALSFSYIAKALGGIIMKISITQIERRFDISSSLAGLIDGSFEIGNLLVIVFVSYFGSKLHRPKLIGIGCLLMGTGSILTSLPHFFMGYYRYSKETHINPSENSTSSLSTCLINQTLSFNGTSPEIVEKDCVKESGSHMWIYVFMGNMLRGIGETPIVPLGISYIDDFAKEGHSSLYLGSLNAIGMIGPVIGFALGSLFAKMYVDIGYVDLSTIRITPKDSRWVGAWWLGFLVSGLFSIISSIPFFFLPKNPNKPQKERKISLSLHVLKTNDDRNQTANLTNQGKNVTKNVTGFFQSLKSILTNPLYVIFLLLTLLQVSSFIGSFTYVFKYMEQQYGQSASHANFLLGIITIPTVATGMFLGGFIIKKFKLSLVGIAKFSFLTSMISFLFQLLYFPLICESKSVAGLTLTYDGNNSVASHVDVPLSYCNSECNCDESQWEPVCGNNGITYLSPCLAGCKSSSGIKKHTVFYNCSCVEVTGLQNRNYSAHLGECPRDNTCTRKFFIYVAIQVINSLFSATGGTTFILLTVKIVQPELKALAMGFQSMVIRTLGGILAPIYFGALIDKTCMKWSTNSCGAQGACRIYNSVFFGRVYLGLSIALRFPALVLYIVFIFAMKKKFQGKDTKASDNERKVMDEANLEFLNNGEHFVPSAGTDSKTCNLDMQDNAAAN

**Q.** With `N#Cc1nn(-c2cc(Cl)c(Oc3n[nH]c(=O)c4ccccc34)c(Cl)c2)c(=O)[nH]c1=O` [Compound 2, 2-(3,5-dichloro-4-((4-oxo-3,4-dihydrophthalazin-1-yl)oxy)phenyl)-3,5-dioxo-2,3,4,5-tetrahydro-1,2,4-triazine-6-carbonitrile] as the compound, how does the “reduction of serum triglycerides from time 0” value [1] read?
**A.** 30-80%

**Q.** What about the “reduction of total cholesterol in the serum” value [1] of the same compound?
**A.** 30-70%

**Q.** What about the “PK dose proportionality and variability” value [2] of the same compound?
**A.** dose-proportional PK with low variability

**Q.** What about the SHBG [2] of the same compound?
**A.** increased SHBG

**Q.** And the “circulating atherogenic lipid levels (LDL-c, Apo B, total cholesterol, triglycerides)” value [2]?
**A.** significant decreases

**Q.** And the “free T4” value [2]?
**A.** Dose-dependent declines

**Q.** And the safety and tolerability [2]?
**A.** generally safe and well-tolerated

**Q.** What about the “subjects with ALT increase to ≥2×ULN” value [2] of the same compound?
**A.** No subject

**Q.** What about the “AEs by relationship to drug: Not related” value ([3]; 3 mg QD 14 days (N = 6)) of the same compound?
**A.** 1 (16.7%) n (%)

**Q.** What about the “AEs by relationship to drug: Possibly related” value (“AEs … Possibly related” below) ([3]; 3 mg QD 14 days (N = 6)) of the same compound?
**A.** 0 n (%)

**Q.** What about the “AEs by relationship to drug: Related” value ([3]; 3 mg QD 14 days (N = 6)) of the same compound?
**A.** 0 n (%)

**Q.** And the “AEs by relationship to drug: Unlikely related” value (“AEs … Unlikely related” below) ([3]; 3 mg QD 14 days (N = 6))?
**A.** 0 n (%)

**Q.** And the “Subject incidence: Any AE, all CTCAE grades” value (“Subject incidence: Any AE” below) ([3]; 3 mg QD 14 days (N = 6))?
**A.** 1 (16.7%) n (%)

**Q.** And the “Subject incidence: Grade 1 AEs” value ([3]; 3 mg QD 14 days (N = 6))?
**A.** 1 (16.7%) n (%)

**Q.** What about the “Subject incidence: Grade 2 or higher AEs” value ([3]; 3 mg QD 14 days (N = 6)) of the same compound?
**A.** 0 n (%)

**Q.** What about the “Subject incidence: Serious AEs” value ([3]; 3 mg QD 14 days (N = 6)) of the same compound?
**A.** 0 n (%)

**Q.** And the “AEs by relationship to drug: Not related” value ([3]; 6 mg QD 14 days (N = 6))?
**A.** 0 n (%)

**Q.** What about the “AEs … Possibly related” value ([3]; 6 mg QD 14 days (N = 6)) of the same compound?
**A.** 1 (16.7%) n (%)

**Q.** And the “AEs by relationship to drug: Related” value ([3]; 6 mg QD 14 days (N = 6))?
**A.** 0 n (%)

**Q.** And the “AEs … Unlikely related” value ([3]; 6 mg QD 14 days (N = 6))?
**A.** 0 n (%)

**Q.** What about the “Subject incidence: Any AE” value ([3]; 6 mg QD 14 days (N = 6)) of the same compound?
**A.** 1 (16.7%) n (%)

**Q.** And the “Subject incidence: Grade 1 AEs” value ([3]; 6 mg QD 14 days (N = 6))?
**A.** 1 (16.7%) n (%)

**Q.** What about the “Subject incidence: Grade 2 or higher AEs” value ([3]; 6 mg QD 14 days (N = 6)) of the same compound?
**A.** 0 n (%)

**Q.** And the “Subject incidence: Serious AEs” value ([3]; 6 mg QD 14 days (N = 6))?
**A.** 0 n (%)

**Q.** And the “AEs by relationship to drug: Not related” value ([3]; 10 mg QD 14 days (N = 6))?
**A.** 2 (33.3%) n (%)

**Q.** And the “AEs … Possibly related” value ([3]; 10 mg QD 14 days (N = 6))?
**A.** 0 n (%)

**Q.** And the “AEs by relationship to drug: Related” value ([3]; 10 mg QD 14 days (N = 6))?
**A.** 0 n (%)

**Q.** What about the “AEs … Unlikely related” value ([3]; 10 mg QD 14 days (N = 6)) of the same compound?
**A.** 0 n (%)

**Q.** What about the “Subject incidence: Any AE” value ([3]; 10 mg QD 14 days (N = 6)) of the same compound?
**A.** 2 (33.3%) n (%)

**Q.** And the “Subject incidence: Grade 1 AEs” value ([3]; 10 mg QD 14 days (N = 6))?
**A.** 2 (33.3%) n (%)

**Q.** What about the “Subject incidence: Grade 2 or higher AEs” value ([3]; 10 mg QD 14 days (N = 6)) of the same compound?
**A.** 0 n (%)

**Q.** And the “Subject incidence: Serious AEs” value ([3]; 10 mg QD 14 days (N = 6))?
**A.** 0 n (%)

**Q.** What about the “Ctau (mean)” value ([3]; Day 14, 1 mg QD) of the same compound?
**A.** 25.7 ng/mL

**Q.** And the “Ctau (mean)” value ([3]; Day 14, 3 mg QD)?
**A.** 77.9 ng/mL

**Q.** What about the “Ctau (mean)” value ([3]; Day 14, 6 mg QD) of the same compound?
**A.** 175 ng/mL

**Q.** And the “Ctau (mean)” value ([3]; Day 14, 10 mg QD)?
**A.** 196 ng/mL

**Q.** And the GGT ([3]; QD 14 days)?
**A.** Dose-dependent GGT increases

**Q.** And the “TSH or free T3” value ([3]; QD 14 days)?
**A.** without clear change

**Q.** And the “free T4” value ([3]; QD 14 days)?
**A.** declined in dose-dependent fashion

**Q.** What about the free testosterone levels ([3]; QD 14 days) of the same compound?
**A.** no significant change

**Q.** And the “heart rate and blood pressure” value ([3]; QD 14 days)?
**A.** remained stable

**Q.** And the “mean ALT values” ([3]; QD 14 days)?
**A.** not significantly different from placebo

**Q.** And the “oral bioavailability and PK variability” value ([3]; QD 14 days)?
**A.** good oral bioavailability with low PK variability

**Q.** What about the total testosterone ([3]; QD 14 days) of the same compound?
**A.** Dose-dependent total testosterone increases

**Q.** And the safety and tolerability ([3]; QD 14 days, up to 10 mg)?
**A.** well-tolerated

**Q.** What about the HDL-c ([3]; day 15) of the same compound?
**A.** did not significantly change

**Q.** And the “total cholesterol, LDL-c, Apo B, and triglycerides” value ([3]; day 15, 10 mg dose cohort)?
**A.** significant reductions

**Q.** What about the Cmax ([3]; Day 14, 1 mg QD) of the same compound?
**A.** 80.3 ng/mL

**Q.** What about the AUC ([3]; Day 14, 1 mg QD) of the same compound?
**A.** 1090 ng·h/mL

**Q.** What about the half-life ([3]; Day 14, 1 mg QD) of the same compound?
**A.** 19.5 h

**Q.** What about the Cmax ([3]; Day 14, 3 mg QD) of the same compound?
**A.** 291 ng/mL

**Q.** What about the AUC ([3]; Day 14, 3 mg QD) of the same compound?
**A.** 3600 ng·h/mL

**Q.** What about the half-life ([3]; Day 14, 3 mg QD) of the same compound?
**A.** 16 h

**Q.** And the Cmax ([3]; Day 14, 6 mg QD)?
**A.** 699 ng/mL

**Q.** What about the AUC ([3]; Day 14, 6 mg QD) of the same compound?
**A.** 8310 ng·h/mL

**Q.** And the half-life ([3]; Day 14, 6 mg QD)?
**A.** 15.8 h

**Q.** What about the Cmax ([3]; Day 14, 10 mg QD) of the same compound?
**A.** 996 ng/mL

**Q.** What about the AUC ([3]; Day 14, 10 mg QD) of the same compound?
**A.** 10600 ng·h/mL

**Q.** And the half-life ([3]; Day 14, 10 mg QD)?
**A.** 15.4 h

**Q.** And the SHBG ([3]; multiple doses, even at 3 mg QD)?
**A.** significant and dose-dependent increases

**Q.** What about the IC50 (OATP1B3) of the same compound?
**A.** 710 nM
